Read-outs that look alike come from different tables or passages of the source.
What was measured:
[1] = system: DU-145 cells; experiment: LDH cytotoxicity, DU-145 cells; type: cell-based, human; conditions: 24 h
Description: DU-145 cells were seeded at a density of 130 × 10^3 cells/well in 6-well plates and maintained in an incubator at 37 °C with 5% CO2 for 24 h. […] Treated cells were incubated for an additional 24 h, followed by quantification of LDH release. LDH released from damaged or dying cells oxidizes lactate to produce NADH which then reacts with a water-soluble tetrazolium salt (WST) reagent to produce a yellow-colored product. The intensity of the yellow-colored product was detected with an OD reading at 450 nm (quantified by a BioTek microplate reader interfaced with SoftMax Pro 5.4.5 software; Winooski, VT, USA) and was directly proportional to the amount of LDH released. Percent cytotoxicity was calculated according to the manufacturer’s protocol as the following: % Cytotoxicity=OD450 Supernatant/Supernatant+Lysate

[2] = biological target: T1, canonical CBRs stably expressed in CHO-hCB2 (Homo sapiens, UniProt P34972); experiment: Adenylyl cyclase modulation in whole CHO-hCB2 cells; type: cell-based; conditions: 10 μM
T1 construct: expressed in transfected cells
T1 sequence (P34972 whole entry): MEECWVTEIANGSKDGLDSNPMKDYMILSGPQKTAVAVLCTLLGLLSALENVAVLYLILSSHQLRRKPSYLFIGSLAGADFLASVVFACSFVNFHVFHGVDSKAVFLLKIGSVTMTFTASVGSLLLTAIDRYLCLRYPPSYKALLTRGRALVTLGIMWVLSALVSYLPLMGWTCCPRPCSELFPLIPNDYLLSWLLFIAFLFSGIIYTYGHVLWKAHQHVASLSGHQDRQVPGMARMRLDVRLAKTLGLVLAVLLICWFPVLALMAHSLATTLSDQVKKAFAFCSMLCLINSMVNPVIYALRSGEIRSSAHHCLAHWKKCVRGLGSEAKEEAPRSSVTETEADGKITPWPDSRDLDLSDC
Description: Growth media contained FetalPlex (10%) and 1% pennicillin/streptomycin. Cells were cultured overnight in a humidified incubator maintained at 37 °C with 5% CO2. For some experiments, a subset of wells were treated overnight with pertussis toxin (2 μL/mL) to abolish Gi/Go protein-mediated signaling. […] After [^3H]adenine incubation, media was replaced with 0.5 mL of a Krebs–Ringer–HEPES solution (10 mM HEPES, 110 mM NaCl, 25 mM Glucose, 55 mM Sucrose, 5 mM KCl, 1 mM MgCl2, and 1.8 mM CaCl2 at pH 7.4) containing 0.5 mM IBMX, 10 μM forskolin and a receptor-saturating concentration (10^−5 M) of cannabinoid ligands to be examined. Plates were then floated in a 37 °C water bath for 15 min, followed by termination of reactions by addition of 50 μL of 2.2 N HCl to each well. Then, [^3H]cAMP was isolated by alumina column chromatography and collection in a 4 mL elution volume. Finally, 10 mL of Scintiverse^TM BD Cocktail scintillation fluid (Fisher Scientific; Hampton, NH, USA) was added to eluates and radioactivity (quantified as DPMs) was quantified via a liquid scintillation spectrophotometer (Tri Carb 2100 TR Liquid Scintillation Analyzer, Packard Instruments, Meriden, CT, USA).

[3] = biological target: T1, canonical CBRs stably expressed in CHO-hCB2; experiment: [^35S]GTPγS binding, CHO-hCB2 homogenates; type: biochemical; conditions: 10 μM
Description: (§1) Non-specific binding was defined as radioactivity remaining in the presence of 10 μM of non-radioactive GTPγS and subtracted from total binding to determine specific [^35S]GTPγS binding. All binding reactions were conducted in triplicate, in a final volume of 1 mL, and, following mixing, were incubated for 30 min at 30 °C. After incubation, reactions were terminated by rapid vacuum filtration through Whatman GF/B glass fiber filters (Brandel; Gaithersburg, MD, USA), followed by three washes of 4 mls of ice-cold filtration buffer (50 mM Tris, pH 7.4, and 0.05% bovine serum albumin). Samples were punched out from filter papers into scintillation vials, to which 4 mls of ScintiverseTM-BDR cocktail scintillation fluid (Fisher Scientific; Hampton, NH, USA) was added. Filters were incubated at room temperature for 24 h in scintillation fluid, vortexed, and radioactivity (measured as DPMs) was determined via a liquid scintillation spectrophotometer (Tri Carb 2100 TR Liquid Scintillation Analyzer, Packard Instruments, Meriden, CT, USA).

[4] = system: DU-145 cells; experiment: Mitochondrial membrane potential (JC-1 staining), DU-145 cells; type: cell-based, human; conditions: 24 h; for mitochondrial membrane potential (MMP) depolarization: JC-1
[5] = system: CBRs expressed in PC-3 membranes; experiment: [^3H]WIN-55,212-2 competitive binding screen, PC-3 membranes; set-up: species or system human
Description: as §1, with “The assay” for “Non-specific binding”, “conducted” for “defined”, “previously detailed. […]” for “radioactivity remaining in the presence of 10 μM of non-radioactive GTPγS and subtracted from total binding to determine specific [^35S]GTPγS binding.”, “20” for “30”, “in a 37 °C water bath to achieve equilibrium.” for “at 30 °C.”, “quantified” for “determined”
(§2) These experiments were conducted to screen well-characterized cannabinoid ligands with high affinity for canonical CB1 and/or CB2Rs for binding to CBRs expressed in prostate cancer cells lines, as detailed in [33]. […] All binding reactions were conducted in triplicate, in a final volume of 1 mL, and, following mixing, were incubated for 20 min in a 37 °C water bath to achieve equilibrium. After incubation, reactions were terminated by rapid vacuum filtration and processed for radioactivity, as detailed in Section 4.5.1.

[6] = system: DU-145 cells; experiment: ATP-dependent cell viability, DU-145 cells; type: cell-based, human; conditions: co-incubation with 10 μM ligand, 24 h
Description: Adenosine 5′-triphosphate (ATP) levels were quantified as a measure of DU-145 cell viability in response to cannabinoid treatement using an ATP-luciferase-based bioluminescence assay kit (CellTiter-Glo®, Sigma, MO, USA) and BioTek microplate reader (Winooski, VT, USA). DU-145 cells were seeded at a density of 8 × 10^3 cells/well in a 96-well plate and incubated for 24 h at 37 °C with 5% CO2. The next day, cells were treated with either vehicle or experimental drugs (10 or 50 μM) and incubated for another 24 h at 37 °C with 5% CO2. ATP levels were assessed following incubation by interpolation from an ATP standard curve according to the manufacturer’s protocol, as described previously.

[7] = system: CBRs expressed in DU-145 membranes; type: binding, human
Description: as §1, with “The assay” for “Non-specific binding”, “conducted” for “defined”, “previously detailed. […]” for “radioactivity remaining in the presence of 10 μM of non-radioactive GTPγS and subtracted from total binding to determine specific [^35S]GTPγS binding.”, “20” for “30”, “in a 37 °C water bath to achieve equilibrium.” for “at 30 °C.”, “quantified” for “determined”
as §2

[8] = system: CBRs expressed in DU-145 cells; experiment: [^3H]CP-55,940 competitive binding screen, DU-145 membranes; set-up: species or system human; conditions: 1 μM ligand, 0.2 nM radioligand
Description: as §1, with “The assay” for “Non-specific binding”, “conducted” for “defined”, “previously detailed. […]” for “radioactivity remaining in the presence of 10 μM of non-radioactive GTPγS and subtracted from total binding to determine specific [^35S]GTPγS binding.”, “20” for “30”, “in a 37 °C water bath to achieve equilibrium.” for “at 30 °C.”, “quantified” for “determined”

[9] = system: CBRs expressed in PC-12 cells; experiment: [^3H]WIN-55,212-2 competitive binding screen, PC-12 membranes; set-up: species or system rat; conditions: 1 μM ligand, 1 nM radioligand
Description: as §1, with “The assay” for “Non-specific binding”, “conducted” for “defined”, “previously detailed. […]” for “radioactivity remaining in the presence of 10 μM of non-radioactive GTPγS and subtracted from total binding to determine specific [^35S]GTPγS binding.”, “20” for “30”, “in a 37 °C water bath to achieve equilibrium.” for “at 30 °C.”, “quantified” for “determined”

[10] = system: CBRs expressed in PC-3 cells; experiment: [^3H]CP-55,940 competitive binding screen, PC-3 membranes; set-up: species or system human; conditions: 1 μM ligand, 0.2 nM radioligand
Description: as §1, with “The assay” for “Non-specific binding”, “conducted” for “defined”, “previously detailed. […]” for “radioactivity remaining in the presence of 10 μM of non-radioactive GTPγS and subtracted from total binding to determine specific [^35S]GTPγS binding.”, “20” for “30”, “in a 37 °C water bath to achieve equilibrium.” for “at 30 °C.”, “quantified” for “determined”

[11] = system: CBRs expressed in PC-12 cells; experiment: [^3H]CP-55,940 competitive binding screen, PC-12 membranes; set-up: species or system rat; conditions: 1 μM ligand, 0.2 nM radioligand
Description: as §1, with “The assay” for “Non-specific binding”, “conducted” for “defined”, “previously detailed. […]” for “radioactivity remaining in the presence of 10 μM of non-radioactive GTPγS and subtracted from total binding to determine specific [^35S]GTPγS binding.”, “20” for “30”, “in a 37 °C water bath to achieve equilibrium.” for “at 30 °C.”, “quantified” for “determined”

[12] = system: CBRs expressed in C6-glioma cells; experiment: [^3H]WIN-55,212-2 competitive binding screen, C6-glioma membranes; set-up: species or system mouse; conditions: 1 μM ligand, 1 nM radioligand
Description: as §1, with “The assay” for “Non-specific binding”, “conducted” for “defined”, “previously detailed. […]” for “radioactivity remaining in the presence of 10 μM of non-radioactive GTPγS and subtracted from total binding to determine specific [^35S]GTPγS binding.”, “20” for “30”, “in a 37 °C water bath to achieve equilibrium.” for “at 30 °C.”, “quantified” for “determined”

[13] = system: CBRs expressed in HeLa cells; experiment: [^3H]CP-55,940 competitive binding screen, HeLa membranes; set-up: species or system human; conditions: 1 μM ligand, 0.2 nM radioligand
Description: as §1, with “The assay” for “Non-specific binding”, “conducted” for “defined”, “previously detailed. […]” for “radioactivity remaining in the presence of 10 μM of non-radioactive GTPγS and subtracted from total binding to determine specific [^35S]GTPγS binding.”, “20” for “30”, “in a 37 °C water bath to achieve equilibrium.” for “at 30 °C.”, “quantified” for “determined”

[14] = system: canonical human CB2Rs (CHO-hCB2); set-up: method as in PMID 34592231; conditions: 1 μM ligand, 1 nM radioligand, CHO-hCB2 membranes; cited from earlier work
[15] = system: CBRs expressed in C6-glioma cells; experiment: [^3H]CP-55,940 competitive binding screen, C6-glioma membranes; set-up: species or system mouse; conditions: 1 μM ligand, 0.2 nM radioligand
Description: as §1, with “The assay” for “Non-specific binding”, “conducted” for “defined”, “previously detailed. […]” for “radioactivity remaining in the presence of 10 μM of non-radioactive GTPγS and subtracted from total binding to determine specific [^35S]GTPγS binding.”, “20” for “30”, “in a 37 °C water bath to achieve equilibrium.” for “at 30 °C.”, “quantified” for “determined”

[16] = system: canonical human CB2Rs (CHO-hCB2); set-up: method as in PMID 34592231; conditions: 1 μM ligand, 0.2 nM radioligand, CHO-hCB2 membranes; cited from earlier work
[17] = system: canonical human CB1Rs (CHO-hCB1); set-up: method as in PMID 34592231; conditions: 1 μM ligand, 1 nM radioligand, CHO-hCB1 membranes; cited from earlier work
[18] = system: CBRs expressed in HeLa cells; experiment: [^3H]WIN-55,212-2 competitive binding screen, HeLa membranes; set-up: species or system human; conditions: 1 μM ligand, 1 nM radioligand
Description: as §1, with “The assay” for “Non-specific binding”, “conducted” for “defined”, “previously detailed. […]” for “radioactivity remaining in the presence of 10 μM of non-radioactive GTPγS and subtracted from total binding to determine specific [^35S]GTPγS binding.”, “20” for “30”, “in a 37 °C water bath to achieve equilibrium.” for “at 30 °C.”, “quantified” for “determined”

[19] = system: canonical human CB1Rs (CHO-hCB1); set-up: method as in PMID 34592231; conditions: 1 μM ligand, 0.2 nM radioligand, CHO-hCB1 membranes; cited from earlier work
[20] = biological target: T2, canonical mouse CB1Rs (mouse brain) (Mus musculus, UniProt P47746); type: binding; conditions: 1 μM ligand, mouse brain membranes
T2 construct: membranes prepared from mouse brain containing a high density of mouse CB1 receptors (mCB1); from tissue; host or cells: mouse brain membrane homogenate
T2 sequence (P47746 whole entry): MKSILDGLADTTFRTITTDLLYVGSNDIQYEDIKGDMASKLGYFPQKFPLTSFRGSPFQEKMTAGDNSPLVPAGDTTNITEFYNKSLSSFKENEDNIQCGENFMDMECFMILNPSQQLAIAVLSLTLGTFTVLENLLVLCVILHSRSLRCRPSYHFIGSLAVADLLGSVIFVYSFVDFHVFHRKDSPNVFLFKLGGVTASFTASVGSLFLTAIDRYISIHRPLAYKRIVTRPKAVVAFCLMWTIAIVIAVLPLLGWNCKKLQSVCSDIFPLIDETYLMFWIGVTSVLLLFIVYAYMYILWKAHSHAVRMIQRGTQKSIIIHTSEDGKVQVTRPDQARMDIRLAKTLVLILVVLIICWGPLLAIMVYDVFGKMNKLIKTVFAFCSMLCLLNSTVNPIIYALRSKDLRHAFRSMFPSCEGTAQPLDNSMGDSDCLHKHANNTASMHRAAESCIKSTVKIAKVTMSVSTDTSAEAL
Description: as §1, with “The assay” for “Non-specific binding”, “conducted” for “defined”, “previously detailed. […]” for “radioactivity remaining in the presence of 10 μM of non-radioactive GTPγS and subtracted from total binding to determine specific [^35S]GTPγS binding.”, “20” for “30”, “in a 37 °C water bath to achieve equilibrium.” for “at 30 °C.”, “quantified” for “determined”

SMILES: COc1ccc(C(=O)c2c(C)n(CCN3CCOCC3)c3cc(I)ccc23)cc1 [AM-630]
- LDH release ([1]; 10 μM): No significant effects
- increase in LDH release ([1]; 50 μM): neither low (10 μM) nor high (50 μM) concentrations of WIN-55,212-2, AM-251 or AM-630 altered LDH release
- attenuation of GW-405833 (50 μM)-induced LDH release ([1]; co-incubation with 10 μM ligand): significantly attenuated
- enhancement of forskolin-stimulated intracellular cAMP levels [2]: 117 ± 27.1%
- decrease in basal G protein activity ([^35S]GTPγS binding) [3]: 26.15 ± 5.15%
- MMP on co-incubation with GW-405833 (10 μM) ([4]; 10 μM ligand co-incubated): MMP was not significantly reduced from vehicle-treated levels
- mitochondrial membrane potential (MMP) depolarization ([4]; 10 μM): had no effect on MMP
- mitochondrial membrane potential (MMP) depolarization ([4]; 50 μM): had no effect on MMP
- displacement of [^3H]WIN-55,212-2 ([5]; 1 μM ligand, 1 nM radioligand, PC-3 membranes): failed to displace
- attenuation of GW-405833 (50 μM)-induced reduction in ATP concentrations [6]: significantly attenuated
- displacement of [^3H]WIN-55,212-2 [7]: failed to displace

SMILES: CCCCCCC(C)(C)c1ccc([C@@H]2C[C@H](O)CC[C@H]2CCCO)c(O)c1 [CP-55,940]
- displacement of [^3H]CP-55,940 [8]: neither the non-selective CBR ligand CP-55,940 nor WIN-55,212-2 produced significant displacement
- displacement of [^3H]WIN-55,212-2 (Figure 1B) [9]: only WIN-55,212-2, and not CP-55,940, significantly displaced
- displacement of [^3H]CP-55,940 [10]: neither the non-selective CBR ligand CP-55,940 nor WIN-55,212-2 produced significant displacement
- displacement of [^3H]CP-55,940 [11]: neither the non-selective CBR ligand CP-55,940 nor WIN-55,212-2 produced significant displacement
- displacement of [^3H]WIN-55,212-2 (Figure 1B) [12]: only WIN-55,212-2, and not CP-55,940, significantly displaced
- displacement of [^3H]WIN-55,212-2 [5]: only WIN-55,212-2, and not CP-55,940, significantly displaced
- displacement of [^3H]CP-55,940 [13]: neither the non-selective CBR ligand CP-55,940 nor WIN-55,212-2 produced significant displacement
- displacement of [^3H]WIN-55,212-2 (Figure 1B) [14]: produced near or complete displacement
- displacement of [^3H]CP-55,940 [15]: neither the non-selective CBR ligand CP-55,940 nor WIN-55,212-2 produced significant displacement
- displacement of [^3H]CP-55,940 [16]: produced near or complete displacement
- displacement of [^3H]WIN-55,212-2 (Figure 1B) [17]: produced near or complete displacement
- displacement of [^3H]WIN-55,212-2 (Figure 1B) [18]: only WIN-55,212-2, and not CP-55,940, significantly displaced
- displacement of [^3H]CP-55,940 [19]: produced near or complete displacement
- displacement of [^3H]WIN-55,212-2 [7]: only WIN-55,212-2, and not CP-55,940, significantly displaced
- displacement of [^3H]CP-55,940 ([20]; 0.2 nM radioligand): produced near or complete displacement
- displacement of [^3H]WIN-55,212-2 (Figure 1B) ([20]; 1 nM radioligand): produced near or complete displacement
